Data reported in article PMC8080777, “Discovery, optimization, and evaluation of non-bile acid FXR/TGR5 dual agonists” (Scientific Reports, 2021).

System: GLP-1
Assay: In vivo GLP-1 secretion after glucose challenge
Set-up: species or system C57 mice
Conditions: for Plasma GLP-1 levels: single oral 100 mg/kg, overnight-fasted C57 mice, 2 g/kg glucose one hour later, blood 15 min after challenge
Method: (§1) Measurement of GLP-1 secretion: To measure plasma GLP-1 levels, 100 mg/kg of compounds 20p and 20q were administered orally to overnight-fasted C57 mice (n = 5 animals/group). One hour later, all mice were challenged with 2 g/kg glucose, and blood samples were collected after 15 min of glucose challenge test. Plasma GLP-1 levels were measured using the GLP-1 ELISA Kit Wako, High Sensitive (FUJIFILM Wako Pure Chemical Corporation, Osaka city, Osaka, Japan)[56].
Amersham Place Little Chalfont Buckinghamshire, HP7 9NA UK), and cDNA was synthesized using ReverTra Ace qPCR RT Master Mix (Toyobo Co., Ltd., Osaka City, Osaka, Japan). Real-time PCR was performed using a CFX96 Touch Real-Time PCR Analysis System (CFX Manager, Bio-Rad, 1000 Alfred Nobel Drive, Hercules, CA, USA), and the mRNA expression levels of SHP and CYP7A1, the target gene s of FXR, were measured using the intercalator […]
In vivo assay protocol (GLP-1)
as §1, with “overnight -fasted” for “overnight-fasted”, “(n=5” for “(n = 5”, “Japan)[56].” left out
In vivo assay protocol (OGTT test)
To measure blood glucose levels, 100 mg/kg of test compounds 20p and 20q or vehicle were administered orally to overnight-fasted C57 mice (n=5 mice/group, control; n=10). One hour later, all mice were challenged with 2 g/kg glucose, and blood samples were collected after 15 min of glucose loading. The blood glucose levels were measured using LabAssay Glucose (FUJIFILM Wako Pure Chemical Corporation, Osaka City, Osaka, Japan).5
In vivo in-house animal guidelines
Study protocols were designed and refined by taking reduction of animal use into consideration. […]

## COC(=O)/C=C/c1cccc(N(Cc2ccc(-c3ccc(N(C)C)cc3)cc2)C(=O)C2CCCCC2)c1 [Compound 7, Fexaramine, reference compound]
Single dose, wild-type mice
  Serum GLP-1: did not increase serum GLP-1

## COc1cc(Cl)cc(N(CC23CCC(c4ccc(OC)c(C#N)c4)(CC2)CC3)C(=O)c2ccncc2C)c1 [Compound 20p]
  Plasma GLP-1 levels: significantly increased the plasma levels of GLP-1

## COc1ccc(C23CCC(CN(C(=O)c4ccncc4C)c4cc(Cl)cc(Cl)c4)(CC2)CC3)cc1C#N [Compound 20q]
  Plasma GLP-1 levels: significantly increased the plasma levels of GLP-1
